How the values were obtained:
Format in all cases: cell-based
[1] = molecular target: D(2) dopamine receptor (Homo sapiens, UniProt P14416); experiment: (§1) Radioligand Binding Assay: The ability of the compounds to bind to the 5-HT2A, D3 and D2 receptors was determined using radioligand binding to cloned receptors selectively expressed in HEK-293 EBNA cells.
[2] = molecular target: D(3) dopamine receptor (Homo sapiens, UniProt P35462); experiment: as §1
[3] = molecular target: 5-hydroxytryptamine receptor 2A (Homo sapiens, UniProt P28223); experiment: as §1
5-hydroxytryptamine receptor 2A, sequence (P28223 whole entry): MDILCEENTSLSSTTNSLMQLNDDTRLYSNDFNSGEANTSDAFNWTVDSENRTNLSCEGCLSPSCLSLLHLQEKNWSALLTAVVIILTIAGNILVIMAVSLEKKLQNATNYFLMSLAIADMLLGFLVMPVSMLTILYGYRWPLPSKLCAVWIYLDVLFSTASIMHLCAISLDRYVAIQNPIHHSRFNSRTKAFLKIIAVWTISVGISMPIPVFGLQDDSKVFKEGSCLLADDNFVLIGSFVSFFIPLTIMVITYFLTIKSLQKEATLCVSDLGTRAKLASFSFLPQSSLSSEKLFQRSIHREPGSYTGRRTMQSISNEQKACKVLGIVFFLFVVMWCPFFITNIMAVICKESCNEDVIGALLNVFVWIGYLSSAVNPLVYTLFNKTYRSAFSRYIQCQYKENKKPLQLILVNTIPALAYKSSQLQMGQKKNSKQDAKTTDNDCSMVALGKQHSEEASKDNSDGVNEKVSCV

D(3) dopamine receptor, sequence (P35462 whole entry): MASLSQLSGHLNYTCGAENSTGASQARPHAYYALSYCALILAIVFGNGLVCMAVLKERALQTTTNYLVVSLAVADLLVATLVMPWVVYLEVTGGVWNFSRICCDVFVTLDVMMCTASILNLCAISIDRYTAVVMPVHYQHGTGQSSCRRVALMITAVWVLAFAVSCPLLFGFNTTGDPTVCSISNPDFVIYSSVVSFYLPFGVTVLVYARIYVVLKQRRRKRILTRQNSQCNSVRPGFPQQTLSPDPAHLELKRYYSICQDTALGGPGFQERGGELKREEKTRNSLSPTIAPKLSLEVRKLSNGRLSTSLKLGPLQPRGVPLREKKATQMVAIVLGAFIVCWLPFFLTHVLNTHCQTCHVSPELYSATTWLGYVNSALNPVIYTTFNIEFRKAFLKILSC
D(2) dopamine receptor, sequence (P14416 whole entry): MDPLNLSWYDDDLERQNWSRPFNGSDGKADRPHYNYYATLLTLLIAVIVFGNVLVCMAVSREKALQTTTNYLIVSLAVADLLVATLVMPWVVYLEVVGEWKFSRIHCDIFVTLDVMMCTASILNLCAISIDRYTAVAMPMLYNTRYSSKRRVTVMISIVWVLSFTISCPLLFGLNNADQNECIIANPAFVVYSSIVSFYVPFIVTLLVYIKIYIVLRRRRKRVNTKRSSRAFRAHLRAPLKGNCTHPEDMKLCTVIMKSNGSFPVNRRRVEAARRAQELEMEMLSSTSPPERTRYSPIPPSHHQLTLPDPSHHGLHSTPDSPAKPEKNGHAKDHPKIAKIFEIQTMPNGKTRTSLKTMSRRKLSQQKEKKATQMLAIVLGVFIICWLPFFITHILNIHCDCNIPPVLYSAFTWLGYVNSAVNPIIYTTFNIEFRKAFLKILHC

**Q.** For `CC(C)(O)C(=O)N[C@H]1CC[C@H](CCN2CCN(c3nccc4c3CCO4)CC2)CC1`, which Ki [1] is on record?
**A.** Its Ki is 1260 nM.

**Q.** And the Ki [2]?
**A.** The Ki was 195 nM.

**Q.** And the Ki [3]?
**A.** The Ki was 7.82 nM.

Reference: ChEMBL document CHEMBL3639183, “Anellated pyridine compounds” (2013)
